From PubChem BioAssay (NCI)
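96-well plates; 48 h exposure; 5 concentrations. Endpoints by linear interpolation between flanking doses. Not reached: highest tested concentration assigned. GI50 marks 50% less growth. The concentration for full growth arrest is given as TGI.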

Key:
Experiment in all cases: growth of human tumour cells (NCI), 48 h; in the data active = GI50 below about 0.43 µM; inactive = the rest
SF-268 CNS = tested on: SF-268 CNS
MALME-3M melanoma = tested on: MALME-3M melanoma
RPMI-8226 leukemia = tested on: RPMI-8226 leukemia
MDA-MB-435 = tested on: MDA-MB-435
SNB-75 CNS = tested on: SNB-75 CNS
UACC-62 melanoma = tested on: UACC-62 melanoma
CCRF-CEM leukemia = tested on: CCRF-CEM leukemia
UO-31 renal = tested on: UO-31 renal
UACC-257 melanoma = tested on: UACC-257 melanoma
T-47D breast = tested on: T-47D breast
DU-145 prostate = tested on: DU-145 prostate
PC-3 prostate = tested on: PC-3 prostate
SF-539 CNS = tested on: SF-539 CNS
EKVX NSCLC = tested on: EKVX NSCLC
HS 578T breast = tested on: HS 578T breast
HL-60(TB) leukemia = tested on: HL-60(TB) leukemia
NCI-H460 lung = tested on: NCI-H460 lung
HOP-62 NSCLC = tested on: HOP-62 NSCLC
SK-OV-3 ovarian = tested on: SK-OV-3 ovarian
786-0 renal = tested on: 786-0 renal
OVCAR-8 ovarian = tested on: OVCAR-8 ovarian
MCF7 breast = tested on: MCF7 breast
HT29 colon = tested on: HT29 colon
IGROV1 ovarian = tested on: IGROV1 ovarian
HCT-116 colon = tested on: HCT-116 colon
ACHN renal = tested on: ACHN renal
OVCAR-4 ovarian = tested on: OVCAR-4 ovarian
SNB-19 CNS = tested on: SNB-19 CNS
SW-620 colon = tested on: SW-620 colon
SK-MEL-28 melanoma = tested on: SK-MEL-28 melanoma
A498 renal = tested on: A498 renal
KM12 colon = tested on: KM12 colon
RXF 393 renal = tested on: RXF 393 renal
SR leukemia = tested on: SR leukemia
CAKI-1 renal = tested on: CAKI-1 renal
BT-549 breast = tested on: BT-549 breast
NCI-H23 lung = tested on: NCI-H23 lung
NCI-H226 lung = tested on: NCI-H226 lung
TK-10 renal = tested on: TK-10 renal
MOLT-4 leukemia = tested on: MOLT-4 leukemia
OVCAR-3 ovarian = tested on: OVCAR-3 ovarian
HCT-15 colon = tested on: HCT-15 colon
COLO 205 colon = tested on: COLO 205 colon
SK-MEL-2 melanoma = tested on: SK-MEL-2 melanoma
LOX IMVI melanoma = tested on: LOX IMVI melanoma
SN12C renal = tested on: SN12C renal
NCI-H522 lung = tested on: NCI-H522 lung
K-562 leukemia = tested on: K-562 leukemia
SK-MEL-5 melanoma = tested on: SK-MEL-5 melanoma
A549 NSCLC = tested on: A549 NSCLC
U251 CNS = tested on: U251 CNS
SF-295 CNS = tested on: SF-295 CNS
M14 melanoma = tested on: M14 melanoma
NCI/ADR-RES ovarian = tested on: NCI/ADR-RES ovarian
OVCAR-5 ovarian = tested on: OVCAR-5 ovarian
MDA-MB-231 breast = tested on: MDA-MB-231 breast
HCC-2998 colon = tested on: HCC-2998 colon

CCC(CC)COC(=O)[C@H](C)N[P@](=O)(OC[C@H]1O[C@@](C#N)(c2ccc3c(N)ncnn23)[C@H](O)[C@@H]1O)Oc1ccccc1
49.1 µM: TGI (NCI-H226 lung)
66 µM: TGI (OVCAR-4 ovarian)
91.6 µM: TGI (SNB-75 CNS)
4.51 µM: TGI (SK-MEL-2 melanoma)
8.62 µM: TGI (HL-60(TB) leukemia)
18.5 µM: TGI (OVCAR-3 ovarian)
18.4 µM: TGI (COLO 205 colon)
27.3 µM: TGI (MCF7 breast) | TGI (NCI-H522 lung)
81.3 µM: TGI (MDA-MB-231 breast)
11 µM: TGI (UACC-62 melanoma)
11.8 µM: TGI (SK-MEL-28 melanoma)
30.2 µM: TGI (HCT-116 colon)
6.91 µM: TGI (MALME-3M melanoma)
inactive: GI50 (SF-268 CNS) 4.29 µM | GI50 (MALME-3M melanoma) 2.08 µM | GI50 (RPMI-8226 leukemia) 1.02 µM | GI50 (MDA-MB-435) 4.53 µM | GI50 (SNB-75 CNS) 2.75 µM | GI50 (UACC-62 melanoma) 2.56 µM | GI50 (CCRF-CEM leukemia) 3.51 µM | GI50 (UO-31 renal) 41.3 µM | GI50 (UACC-257 melanoma) 2.73 µM | GI50 (T-47D breast) 1.82 µM | GI50 (DU-145 prostate) 8.44 µM | GI50 (PC-3 prostate) 3.58 µM | GI50 (SF-539 CNS) 10.8 µM | GI50 (EKVX NSCLC) 19.1 µM | GI50 (HS 578T breast) 13.2 µM | GI50 (HL-60(TB) leukemia) 0.701 µM | GI50 (NCI-H460 lung) 4.83 µM | GI50 (HOP-62 NSCLC) 6.34 µM | GI50 (SK-OV-3 ovarian) 2.65 µM | GI50 (786-0 renal) 6.08 µM | GI50 (OVCAR-8 ovarian) 5.91 µM | GI50 (MCF7 breast) 3.45 µM | GI50 (HT29 colon) 6.08 µM | GI50 (IGROV1 ovarian) 2.72 µM | GI50 (HCT-116 colon) 2.24 µM | GI50 (ACHN renal) 18.3 µM | GI50 (OVCAR-4 ovarian) 3.02 µM | GI50 (SNB-19 CNS) 15.7 µM | GI50 (SW-620 colon) 1.92 µM | GI50 (SK-MEL-28 melanoma) 2.83 µM | GI50 (KM12 colon) 15.3 µM | GI50 (RXF 393 renal) 2.8 µM | GI50 (SR leukemia) 1 µM | GI50 (CAKI-1 renal) 4.19 µM | GI50 (BT-549 breast) 9.62 µM | GI50 (NCI-H23 lung) 2.59 µM | GI50 (NCI-H226 lung) 7.61 µM | GI50 (TK-10 renal) 9.85 µM | GI50 (MOLT-4 leukemia) 2.79 µM | GI50 (OVCAR-3 ovarian) 2.35 µM | GI50 (HCT-15 colon) 29.1 µM | GI50 (COLO 205 colon) 2.46 µM | GI50 (SK-MEL-2 melanoma) 0.97 µM | GI50 (LOX IMVI melanoma) 3.58 µM | GI50 (SN12C renal) 7.73 µM | GI50 (NCI-H522 lung) 1.29 µM | GI50 (K-562 leukemia) 0.597 µM | GI50 (SK-MEL-5 melanoma) 5.24 µM | GI50 (A549 NSCLC) 47.7 µM | GI50 (U251 CNS) 15.9 µM | GI50 (SF-295 CNS) 31 µM | GI50 (M14 melanoma) 1.95 µM | GI50 (NCI/ADR-RES ovarian) > 100 µM | GI50 (OVCAR-5 ovarian) 40.2 µM | GI50 (MDA-MB-231 breast) 5.46 µM | GI50 (HCC-2998 colon) 5.39 µM
17.5 µM: TGI (SK-MEL-5 melanoma)
14.2 µM: TGI (PC-3 prostate)
25.1 µM: TGI (MDA-MB-435)
active: GI50 (A498 renal) 0.359 µM
> 100 µM: TGI (SF-268 CNS) | TGI (UO-31 renal) | TGI (T-47D breast) | TGI (DU-145 prostate) | TGI (EKVX NSCLC) | TGI (HS 578T breast) | TGI (NCI-H460 lung) | TGI (HOP-62 NSCLC) | TGI (SK-OV-3 ovarian) | TGI (786-0 renal) | TGI (OVCAR-8 ovarian) | TGI (HT29 colon) | TGI (ACHN renal) | TGI (SNB-19 CNS) | TGI (SW-620 colon) | TGI (KM12 colon) | TGI (CAKI-1 renal) | TGI (TK-10 renal) | TGI (HCT-15 colon) | TGI (SN12C renal) | TGI (K-562 leukemia) | TGI (A549 NSCLC) | TGI (U251 CNS) | TGI (SF-295 CNS) | TGI (NCI/ADR-RES ovarian) | TGI (OVCAR-5 ovarian) | TGI (HCC-2998 colon)
95.2 µM: TGI (IGROV1 ovarian)
12.2 µM: TGI (M14 melanoma)
37.3 µM: TGI (SF-539 CNS)
15.7 µM: TGI (UACC-257 melanoma)
50.7 µM: TGI (BT-549 breast)
32.4 µM: TGI (SR leukemia)
10.6 µM: TGI (RPMI-8226 leukemia)
12.1 µM: TGI (NCI-H23 lung)
23.3 µM: TGI (RXF 393 renal)
8.57 µM: TGI (A498 renal)
51.6 µM: TGI (CCRF-CEM leukemia)
31.2 µM: TGI (MOLT-4 leukemia)
22.1 µM: TGI (LOX IMVI melanoma)
